Data taken from patent US20170055529A1, “BROAD SPECTRUM WEED CONTROL IN FLOODED RICE BY IN-WATER APPLICATION OF AUXIN HERBICIDES” (priority 2015, published 2017).
Marks after values point to notes of the source that are not given here.

Legend:
Type in all cases: in vivo
[1] = tested on: ORYSP = Oryza sativa Japonica (transplanted paddy rice); assay: Field trial in-water application, crop tolerance
Procedure: (§1) Field trials were conducted in rice using standard herbicide small plot research methodology. Plot size was 2 square meters (m^2) using 1.6 meter (m) diameter rings placed into the rice paddy soil with capability for flooding to maintain good rice cultural practices and rice growing conditions. There were 3 replicates per treatment. Rice was Japonica type that was hand-transplanted into the saturated soil in the rings as per normal cultural practices. The transplanted rice crop was grown using normal cultural practices for fertilization, watering, flooding and maintenance to ensure good growth of the crop and the weeds under transplanted rice conditions in Taiwan.
(§2) Treatments were applied by mixing the treatments with deionized water just prior to water-injection application by hand to multiple sides in the ring plots. For each 2 m^2 plot, 50 mL deionized water was mixed with the appropriate formulated product amounts to treat 2 m^2 to achieve the desired application rates based on unit area of application (hectare). Ring plot water depth was kept at 3 to 7 cm deep before and after water-injection application.
(§3) The rice and weeds were evaluated at 28 days after application (DAA). Triclopyr triethylammonium (as Garlon® 3 A, 360 g ae/L); fluroxypyr methylheptyl ester (meptyl or MHE, as Starane® Ultra, 333 g ae/L); 2,4-dichlorophenoxyacetic acid dimethylammonium (2,4-D AMINE, 400 g ae/L SL); penoxsulam (as Grasp® SC, 240 g ai/L); and bensulfuron-methyl (as LONDAX® 10% WAY WP) were used.
(§4) The treated and control plots were rated at 28 days after application. Ratings were based on percent (%) visual weed control, where 0 corresponds to no control and 100 corresponds to complete control.

[2] = tested on: ECHCG = Echinochloa crus-galli (barnyardgrass); assay: Greenhouse in-water herbicidal activity (small pots)
Description: (§5) Weed seeds of the desired test plant species were planted in puddled soil (mud) prepared by mixing a non-sterilized mineral soil (approximately 50 percent silt, 26 percent clay, and 24 percent sand, with a pH of about 7.6 and an organic matter content of about 2.9 percent) and water at a 1:1 volumetric ratio. The prepared mud was dispensed in 365 milliliter (mL) aliquots into 16-ounce (oz.) non-perforated plastic pots with a surface area of 86.59 square centimeters (cm^2) leaving a headspace of 3 centimeters (cm) in each pot. Mud was allowed to dry overnight prior to planting or transplanting. Rice seeds were planted in Sun Gro® MetroMix® 360 planting mixture, which typically has a pH of 6.0 to 6.8 and an organic matter content of about 30 percent, in plastic plug trays. Seedlings at the second or third leaf stage of growth were transplanted into 840 mL of mud contained in 32-oz. non-perforated plastic pots with a surface area of 86.59 cm^2 four days prior to herbicide application. The paddy was created by filling the headspace of the pots with 2.5 to 3 cm of water. When required to ensure good germination and healthy plants, a fungicide treatment and/or other chemical or physical treatment was applied. The plants were grown for 4-22 days (d) in a greenhouse with an approximate 14-hour (h) photoperiod which was maintained at about 29° C. during the day and 26° C. during the night. Nutrients were added as Osmocote® (19:6:12, Nitrogen:Phosphorus:Potassium (N:P:K)+minor nutrients) at 2 g per 16 oz. pot and 4 g per 32 oz. pot. Water was added on a regular basis to maintain the paddy flood, and supplemental lighting was provided with overhead metal halide 1000-Watt lamps as necessary. The plants were used for testing when they reached the second or third true leaf stage.
(§6) Triclopyr triethylammonium (as Grandstand® R, 359.5 grams acid equivalent per liter (g ae/L)); fluroxypyr methylheptyl ester (meptyl or MHE, as Starane™, 179.8 g ae/L); 2,4-dichlorophenoxyacetic acid dimethylammonium (2,4-D DMA, as Weedar® 64, 455.4 g ae/L); and penoxsulam (as Grasp® SC, 239.7 grams active ingredient per liter (g ai/L) were used. Measured amounts of formulated compounds were placed in individual 120 mL glass vials and were dissolved in 40 mL of an aqueous mixture containing 1.25% volume per volume (v/v) Agri-Dex® crop oil concentrate. Generally, multiple concentrations were tested utilizing the same stock solution. Applications were made by injecting an appropriate amount of the application solution into the aqueous layer of the paddy. Control plants were treated in the same manner with the solvent blank.
(§7) The treated plants and control plants were placed in a greenhouse as described above and water was added as needed to maintain a paddy flood. After approximately 3 weeks the condition of the test plants, compared with that of the untreated plants, was determined visually and scored on a scale of 0 to 100 percent where 0 corresponds to no injury or growth reduction and 100 corresponds to complete kill.

[3] = tested on: SCPJU = Schoenoplectus juncoides (Japanese bulrush); assay: as above
Description: as §5, §6, §7

[4] = tested on: MOOVA = Monochoria vaginalis (monochoria); assay: as above
Description: as §5, §6, §7

[5] = tested on: CYDPI = Cyperus difformis (small-flower flatsedge); assay: as above
Description: as §5, §6, §7

[6] = tested on: 'Wells' rice (Medium grain rice variety from Arkansas, USA); assay: Greenhouse in-water application, transplanted paddy rice (small pots), crop injury
Description: as §5, §6, §7

[7] = tested on: 'M202' rice (Japonica rice variety from California, USA); assay: as above
Description: as §5, §6, §7

[8] = tested on: ECHCG = Echinochloa crus-galli (barnyardgrass); assay: Field trial in-water herbicidal efficacy
Procedure: as §1, §2, §3, §4

[9] = tested on: SCPJU = Schoenoplectus juncoides (Japanese bulrush); assay: Field trial in-water herbicidal efficacy
Procedure: as §1, §2, §3, §4

[10] = tested on: CYPDI = Cyperus difformis (small-flower flatsedge); assay: Field trial in-water herbicidal efficacy
Procedure: as §1, §2, §3, §4

[11] = tested on: MOOVA = Monochoria vaginalis (monochoria); assay: Field trial in-water herbicidal efficacy
Procedure: as §1, §2, §3, §4

[12] = tested on: LEFCH = Leptochloa chinensis (Chinese sprangletop); assay: Field trial in-water herbicidal efficacy
Procedure: as §1, §2, §3, §4

SMILES	Percent (%) Visual Injury Ratings - 28 DAA, ORYSP ([1]; 140 g ae/ha in-water 10 DAT) [%]	Percent (%) Visual Injury Ratings - 28 DAA, ORYSP ([1]; 280 g ae/ha in-water 10 DAT) [%]	Percent (%) Visual Injury Ratings - 28 DAA, ORYSP ([1]; 560 g ae/ha in-water 10 DAT) [%]	Percent (%) Visual Injury Ratings - 20 DAA, ECHCG ([2]; 280 g ae/ha in-water) [%]	Percent (%) Visual Injury Ratings - 20 DAA, ECHCG ([2]; 560 g ae/ha in-water) [%]	Percent (%) Visual Injury Ratings - 20 DAA, ECHCG ([2]; 1120 g ae/ha in-water) [%]	Percent (%) Visual Injury Ratings - 20 DAA, SCPJU ([3]; 280 g ae/ha in-water) [%]	Percent (%) Visual Injury Ratings - 20 DAA, SCPJU ([3]; 560 g ae/ha in-water) [%]	Percent (%) Visual Injury Ratings - 20 DAA, SCPJU ([3]; 1120 g ae/ha in-water) [%]	Percent (%) Visual Injury Ratings - 20 DAA, MOOVA ([4]; 280 g ae/ha in-water) [%]	Percent (%) Visual Injury Ratings - 20 DAA, MOOVA ([4]; 560 g ae/ha in-water) [%]	Percent (%) Visual Injury Ratings - 20 DAA, MOOVA ([4]; 1120 g ae/ha in-water) [%]	Percent (%) Visual Injury Ratings - 20 DAA, CYDPI ([5]; 280 g ae/ha in-water) [%]	Percent (%) Visual Injury Ratings - 20 DAA, CYDPI ([5]; 560 g ae/ha in-water) [%]	Percent (%) Visual Injury Ratings - 20 DAA, CYDPI ([5]; 1120 g ae/ha in-water) [%]	Percent (%) Visual Injury Ratings - 20 DAA, Wells′ Rice ([6]; 280 g ae/ha in-water) [%]	Percent (%) Visual Injury Ratings - 20 DAA, Wells′ Rice ([6]; 560 g ae/ha in-water) [%]	Percent (%) Visual Injury Ratings - 20 DAA, Wells′ Rice ([6]; 1120 g ae/ha in-water) [%]	Percent (%) Visual Injury Ratings - 20 DAA, M202′ Rice ([7]; 280 g ae/ha in-water) [%]	Percent (%) Visual Injury Ratings - 20 DAA, M202′ Rice ([7]; 560 g ae/ha in-water) [%]	further results
O=C(O)COc1ccc(Cl)cc1Cl [2,4-D DMA (Weedar ® 64), dimethylammonium 2-(2,4-dichlorophenoxy)acetate]	0	0	0	0	20	80	70	100	100	90	100	99	90	100	100	0	0	0	0	0	Percent (%) Visual Injury Ratings - 20 DAA, M202′ Rice ([7]; 1120 g ae/ha in-water): 10* %; Percent (%) Visual Injury Ratings - 28 DAA, ECHCG ([8]; 140 g ae/ha in-water 10 DAT): 0.0%; Percent (%) Visual Injury Ratings - 28 DAA, ECHCG ([8]; 280 g ae/ha in-water 10 DAT): 0.0%; Percent (%) Visual Injury Ratings - 28 DAA, ECHCG ([8]; 560 g ae/ha in-water 10 DAT): 0.0%; Percent (%) Visual Injury Ratings - 28 DAA, SCPJU ([9]; 140 g ae/ha in-water 10 DAT): 10.0%; Percent (%) Visual Injury Ratings - 28 DAA, SCPJU ([9]; 280 g ae/ha in-water 10 DAT): 90.0%; Percent (%) Visual Injury Ratings - 28 DAA, SCPJU ([9]; 560 g ae/ha in-water 10 DAT): 100.0%; Percent (%) Visual Injury Ratings - 28 DAA, CYPDI ([10]; 140 g ae/ha in-water 10 DAT): 0.0%; Percent (%) Visual Injury Ratings - 28 DAA, CYPDI ([10]; 280 g ae/ha in-water 10 DAT): 94.3%; Percent (%) Visual Injury Ratings - 28 DAA, CYPDI ([10]; 560 g ae/ha in-water 10 DAT): 100.0%; Percent (%) Visual Injury Ratings - 28 DAA, MOOVA ([11]; 140 g ae/ha in-water 10 DAT): 0.0%; Percent (%) Visual Injury Ratings - 28 DAA, MOOVA ([11]; 280 g ae/ha in-water 10 DAT): 6.7%; Percent (%) Visual Injury Ratings - 28 DAA, MOOVA ([11]; 560 g ae/ha in-water 10 DAT): 93.3%; Percent (%) Visual Injury Ratings - 28 DAA, LEFCH ([12]; 140 g ae/ha in-water 10 DAT): 0.0%; Percent (%) Visual Injury Ratings - 28 DAA, LEFCH ([12]; 280 g ae/ha in-water 10 DAT): 0.0%; Percent (%) Visual Injury Ratings - 28 DAA, LEFCH ([12]; 560 g ae/ha in-water 10 DAT): 0.0%
CCCCCCC(C)OC(=O)COc1nc(F)c(Cl)c(N)c1Cl (stereo not drawn) [Fluroxypyr-meptyl (Starane ® Ultra), 1-methylheptyl 2-[(4-amino-3,5-dichloro-6-fluoro-2-pyridinyl)oxy]acetate]	0	0	0	0	25	99	60	90	100	85	100	100	100	100	100	0	0	10	0	0	Percent (%) Visual Injury Ratings - 20 DAA, M202′ Rice ([7]; 1120 g ae/ha in-water): 35%; Percent (%) Visual Injury Ratings - 28 DAA, ECHCG ([8]; 140 g ae/ha in-water 10 DAT): 0.0%; Percent (%) Visual Injury Ratings - 28 DAA, ECHCG ([8]; 280 g ae/ha in-water 10 DAT): 0.0%; Percent (%) Visual Injury Ratings - 28 DAA, ECHCG ([8]; 560 g ae/ha in-water 10 DAT): 0.0%; Percent (%) Visual Injury Ratings - 28 DAA, SCPJU ([9]; 140 g ae/ha in-water 10 DAT): 88.3%; Percent (%) Visual Injury Ratings - 28 DAA, SCPJU ([9]; 280 g ae/ha in-water 10 DAT): 98.0%; Percent (%) Visual Injury Ratings - 28 DAA, SCPJU ([9]; 560 g ae/ha in-water 10 DAT): 99.3%; Percent (%) Visual Injury Ratings - 28 DAA, CYPDI ([10]; 140 g ae/ha in-water 10 DAT): 95.0%; Percent (%) Visual Injury Ratings - 28 DAA, CYPDI ([10]; 280 g ae/ha in-water 10 DAT): 98.7%; Percent (%) Visual Injury Ratings - 28 DAA, CYPDI ([10]; 560 g ae/ha in-water 10 DAT): 100.0%; Percent (%) Visual Injury Ratings - 28 DAA, MOOVA ([11]; 140 g ae/ha in-water 10 DAT): 0.0%; Percent (%) Visual Injury Ratings - 28 DAA, MOOVA ([11]; 280 g ae/ha in-water 10 DAT): 0.0%; Percent (%) Visual Injury Ratings - 28 DAA, MOOVA ([11]; 560 g ae/ha in-water 10 DAT): 60.0%; Percent (%) Visual Injury Ratings - 28 DAA, LEFCH ([12]; 140 g ae/ha in-water 10 DAT): 0.0%; Percent (%) Visual Injury Ratings - 28 DAA, LEFCH ([12]; 280 g ae/ha in-water 10 DAT): 0.0%; Percent (%) Visual Injury Ratings - 28 DAA, LEFCH ([12]; 560 g ae/ha in-water 10 DAT): 0.0%
